Assay results taken from PMC11997881, “Comprehensive Characterization of Bruton’s Tyrosine Kinase Inhibitor Specificity, Potency, and Biological Effects: Insights into Covalent and Noncovalent Mechanistic Signatures” (ACS Pharmacology & Translational Science, 2025).

Experiments:
[1] = target: T1, TEC (Homo sapiens, UniProt P42680); assay: scanMAX binding POC, TEC; conditions: 1 μM
T1 sequence (P42680 1-631): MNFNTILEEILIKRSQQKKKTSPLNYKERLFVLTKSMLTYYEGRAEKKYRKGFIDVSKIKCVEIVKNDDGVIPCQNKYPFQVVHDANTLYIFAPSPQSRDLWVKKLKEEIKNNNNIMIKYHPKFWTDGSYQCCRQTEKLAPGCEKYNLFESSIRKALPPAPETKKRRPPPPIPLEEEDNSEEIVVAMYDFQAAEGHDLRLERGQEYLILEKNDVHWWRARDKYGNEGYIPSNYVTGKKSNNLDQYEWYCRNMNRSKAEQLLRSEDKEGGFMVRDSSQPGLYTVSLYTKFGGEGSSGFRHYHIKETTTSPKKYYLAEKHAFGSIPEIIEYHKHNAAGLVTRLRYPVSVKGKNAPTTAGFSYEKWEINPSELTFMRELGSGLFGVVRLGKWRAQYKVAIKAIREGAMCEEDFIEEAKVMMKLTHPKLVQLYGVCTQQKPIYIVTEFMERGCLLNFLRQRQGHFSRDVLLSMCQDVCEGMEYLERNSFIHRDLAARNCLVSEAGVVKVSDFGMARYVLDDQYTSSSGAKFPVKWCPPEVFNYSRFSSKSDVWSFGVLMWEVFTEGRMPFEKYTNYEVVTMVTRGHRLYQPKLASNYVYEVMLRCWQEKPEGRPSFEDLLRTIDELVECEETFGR
From the text: (§1) Comprehensive Characterization of Bruton’s Tyrosine Kinase Inhibitor Specificity, Potency, and
(§2) Biological Effects: Insights into Covalent and Non-Covalent Mechanistic Signatures
(§3) Antonia C. Darragh1, Andrew M. Hanna1, Justin H. Lipner2, Alastair J. King2, Nicole B. Servant1, Mirza Jahic1*
(§4) *To whom correspondence should be addressed: Mirza Jahic, e-mail address: Mirza.Jahic@discovery.eurofinsus.com
(§5) Supporting Table S1. Comparison of BTK inhibitor specificity to TEC family members. TEC family members are
(§6) Burton’s tyrosine kinase (BTK), tyrosine kinase expressed in hepatocellular carcinoma (TEC), bone marrow-
(§7) expressed kinase (BMX/ETK), and T cell-expressed kinase (TXK/RLK), and interleukin-2-inducible T cell kinase
(§8) A zero POC signifies that the compound

[2] = target: T2, TXK (Homo sapiens, UniProt P42681); assay: scanMAX binding POC, TXK; conditions: 1 μM
T2 sequence (P42681 1-527): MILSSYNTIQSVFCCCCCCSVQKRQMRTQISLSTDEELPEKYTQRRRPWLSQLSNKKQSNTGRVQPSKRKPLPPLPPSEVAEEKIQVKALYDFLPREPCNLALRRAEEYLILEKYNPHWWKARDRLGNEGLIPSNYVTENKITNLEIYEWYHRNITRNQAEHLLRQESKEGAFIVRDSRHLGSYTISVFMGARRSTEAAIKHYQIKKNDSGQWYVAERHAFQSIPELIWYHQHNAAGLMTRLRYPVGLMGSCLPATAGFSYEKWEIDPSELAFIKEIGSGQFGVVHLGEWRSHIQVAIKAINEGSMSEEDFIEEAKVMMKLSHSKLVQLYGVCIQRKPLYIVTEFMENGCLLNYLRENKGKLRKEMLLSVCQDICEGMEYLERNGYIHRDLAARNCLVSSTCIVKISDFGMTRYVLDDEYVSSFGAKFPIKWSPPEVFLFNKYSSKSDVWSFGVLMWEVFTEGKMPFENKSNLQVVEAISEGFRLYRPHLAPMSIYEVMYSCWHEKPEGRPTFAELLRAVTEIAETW
From the text: as §1, §2, §3, §4, §5, §6, §7, §8

[3] = target: T3, ITK (Homo sapiens, UniProt Q08881); assay: scanMAX binding POC, ITK; conditions: 1 μM
T3 sequence (Q08881 1-620): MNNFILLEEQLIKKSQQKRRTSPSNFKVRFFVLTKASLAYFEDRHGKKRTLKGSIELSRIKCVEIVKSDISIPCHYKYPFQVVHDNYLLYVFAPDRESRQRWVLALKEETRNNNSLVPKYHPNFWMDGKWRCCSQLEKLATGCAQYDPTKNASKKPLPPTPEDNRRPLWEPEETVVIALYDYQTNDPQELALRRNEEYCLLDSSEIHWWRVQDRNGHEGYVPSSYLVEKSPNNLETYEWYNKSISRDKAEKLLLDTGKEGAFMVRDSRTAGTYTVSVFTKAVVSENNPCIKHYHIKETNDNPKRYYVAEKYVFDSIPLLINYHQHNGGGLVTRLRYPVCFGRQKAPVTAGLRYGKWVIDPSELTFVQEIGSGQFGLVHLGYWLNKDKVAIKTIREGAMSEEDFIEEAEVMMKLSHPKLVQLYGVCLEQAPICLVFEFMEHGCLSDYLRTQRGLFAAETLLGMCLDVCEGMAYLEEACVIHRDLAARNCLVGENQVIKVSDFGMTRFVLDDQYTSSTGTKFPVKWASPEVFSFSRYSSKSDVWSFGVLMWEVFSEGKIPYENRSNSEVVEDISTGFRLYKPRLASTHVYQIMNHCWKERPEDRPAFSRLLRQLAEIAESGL
From the text: as §1, §2, §3, §4, §5, §6, §7, §8

[4] = target: BLK (Homo sapiens, UniProt P51451); assay: scanMAX binding POC, BLK; conditions: 1 μM
[5] = target: EGFR (Homo sapiens, UniProt P00533); assay: scanMAX binding POC, EGFR; conditions: 1 μM
[6] = target: ERBB2 (Homo sapiens, UniProt P04626); assay: scanMAX binding POC, ERBB2; conditions: 1 μM
[7] = target: ERBB3 (Homo sapiens, UniProt P21860); assay: scanMAX binding POC, ERBB3; conditions: 1 μM
[8] = target: ERBB4 (Homo sapiens, UniProt Q15303); assay: scanMAX binding POC, ERBB4; conditions: 1 μM
[9] = target: T4, JAK3 (JH1 catalytic domain) (Homo sapiens, UniProt P52333); assay: scanMAX binding POC, JAK3; conditions: 1 μM
T4 construct: The JAK3 POC is for its JH1 catalytic domain

[10] = target: T5, MKK7 (Homo sapiens, UniProt O14733); assay: scanMAX binding POC, MKK7; conditions: 1 μM
T5 sequence (O14733 1-419): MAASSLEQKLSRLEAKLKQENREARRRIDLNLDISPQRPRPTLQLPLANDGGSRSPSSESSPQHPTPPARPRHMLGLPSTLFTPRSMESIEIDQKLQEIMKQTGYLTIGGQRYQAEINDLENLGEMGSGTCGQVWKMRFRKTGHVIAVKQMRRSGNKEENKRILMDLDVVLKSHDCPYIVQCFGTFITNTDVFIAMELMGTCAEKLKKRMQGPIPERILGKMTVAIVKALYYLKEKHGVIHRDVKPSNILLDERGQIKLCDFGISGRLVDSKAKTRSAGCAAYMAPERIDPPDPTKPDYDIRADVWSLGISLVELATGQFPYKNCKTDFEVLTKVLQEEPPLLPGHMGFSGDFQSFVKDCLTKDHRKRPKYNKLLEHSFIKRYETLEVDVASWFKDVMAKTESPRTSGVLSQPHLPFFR

[11] = tested on: relapsed/refractory (R/R) CLL and small lymphocytic lymphoma (SLL); parameters: method as in NCT03734016; conditions: cited from earlier work
[12] = tested on: BTK; conditions: cited from earlier work
[13] = target: JNK1 (MAPK8) (Homo sapiens, UniProt P45983); assay: scanMAX binding POC, JNK1; conditions: 1 μM
[14] = target: JNK2 (MAPK9) (Homo sapiens, UniProt P45984); assay: scanMAX binding POC, JNK2; conditions: 1 μM
[15] = target: JNK3 (MAPK10) (Homo sapiens, UniProt P53779); assay: scanMAX binding POC, JNK3; conditions: 1 μM
[16] = tested on: BTK C481S; conditions: read-out: average published IC50 for BTK C481S; cited from earlier work
[17] = target: T6, BMX (Homo sapiens, UniProt P51813); assay: scanMAX binding POC, BMX; conditions: 1 μM
T6 sequence (P51813 1-675): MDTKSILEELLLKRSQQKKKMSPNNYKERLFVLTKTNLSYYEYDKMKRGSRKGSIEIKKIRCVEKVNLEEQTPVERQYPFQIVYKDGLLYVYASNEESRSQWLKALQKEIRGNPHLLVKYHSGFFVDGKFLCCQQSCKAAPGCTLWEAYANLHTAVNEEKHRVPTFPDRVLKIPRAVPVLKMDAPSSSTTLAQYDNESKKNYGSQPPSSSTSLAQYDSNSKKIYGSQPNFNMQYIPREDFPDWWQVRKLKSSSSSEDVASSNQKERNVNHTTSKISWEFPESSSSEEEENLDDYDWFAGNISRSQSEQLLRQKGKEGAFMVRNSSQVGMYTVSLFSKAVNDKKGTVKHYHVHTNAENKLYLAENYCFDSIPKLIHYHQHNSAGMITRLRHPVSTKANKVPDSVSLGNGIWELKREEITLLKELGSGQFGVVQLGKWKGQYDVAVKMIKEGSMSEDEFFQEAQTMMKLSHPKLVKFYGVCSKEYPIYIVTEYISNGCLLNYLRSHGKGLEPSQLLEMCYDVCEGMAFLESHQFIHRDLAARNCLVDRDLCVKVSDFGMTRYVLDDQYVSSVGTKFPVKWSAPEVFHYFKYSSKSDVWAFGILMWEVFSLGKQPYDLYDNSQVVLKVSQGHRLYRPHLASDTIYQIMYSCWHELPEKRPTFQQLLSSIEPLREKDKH
From the text: as §1, §2, §3, §4, §5, §6, §7, §8

[18] = tested on: patients with R/R MCL; parameters: method as in NCT03494179; conditions: ref NCT03494179; cited from earlier work

Sequence of ERBB2 (P04626 23-1255): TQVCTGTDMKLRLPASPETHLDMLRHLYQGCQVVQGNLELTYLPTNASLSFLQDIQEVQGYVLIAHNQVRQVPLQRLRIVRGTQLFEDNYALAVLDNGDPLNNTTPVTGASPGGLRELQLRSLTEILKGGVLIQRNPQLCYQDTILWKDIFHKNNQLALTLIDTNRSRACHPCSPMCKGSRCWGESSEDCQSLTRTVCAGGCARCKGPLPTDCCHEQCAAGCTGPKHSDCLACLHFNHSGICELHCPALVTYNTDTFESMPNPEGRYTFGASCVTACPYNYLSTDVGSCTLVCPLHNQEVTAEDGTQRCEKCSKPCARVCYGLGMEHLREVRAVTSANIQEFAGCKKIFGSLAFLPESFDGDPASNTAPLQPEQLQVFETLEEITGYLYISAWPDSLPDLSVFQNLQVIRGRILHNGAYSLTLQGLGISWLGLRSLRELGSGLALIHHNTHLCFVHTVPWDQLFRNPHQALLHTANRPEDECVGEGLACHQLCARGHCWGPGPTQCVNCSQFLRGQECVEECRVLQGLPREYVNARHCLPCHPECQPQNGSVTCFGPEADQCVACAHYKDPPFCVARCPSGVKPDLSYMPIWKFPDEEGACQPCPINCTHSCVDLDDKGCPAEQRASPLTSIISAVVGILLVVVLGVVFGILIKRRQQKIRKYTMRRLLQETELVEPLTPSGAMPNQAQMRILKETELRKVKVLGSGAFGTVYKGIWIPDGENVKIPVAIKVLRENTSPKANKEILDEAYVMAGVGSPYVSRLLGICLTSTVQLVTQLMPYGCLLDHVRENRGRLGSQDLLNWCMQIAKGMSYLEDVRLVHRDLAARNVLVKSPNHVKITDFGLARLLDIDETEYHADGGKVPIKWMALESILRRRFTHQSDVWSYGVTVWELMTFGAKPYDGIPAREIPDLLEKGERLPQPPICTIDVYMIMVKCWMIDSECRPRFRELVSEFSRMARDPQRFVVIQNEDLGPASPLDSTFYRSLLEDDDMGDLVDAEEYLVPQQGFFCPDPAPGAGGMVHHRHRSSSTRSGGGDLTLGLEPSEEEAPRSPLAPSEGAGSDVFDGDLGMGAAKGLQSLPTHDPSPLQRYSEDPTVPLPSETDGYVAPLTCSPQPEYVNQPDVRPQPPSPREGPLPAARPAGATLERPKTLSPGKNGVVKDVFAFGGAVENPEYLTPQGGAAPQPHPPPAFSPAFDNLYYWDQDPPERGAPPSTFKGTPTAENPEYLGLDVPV
Sequence of ERBB3 (P21860 20-1342): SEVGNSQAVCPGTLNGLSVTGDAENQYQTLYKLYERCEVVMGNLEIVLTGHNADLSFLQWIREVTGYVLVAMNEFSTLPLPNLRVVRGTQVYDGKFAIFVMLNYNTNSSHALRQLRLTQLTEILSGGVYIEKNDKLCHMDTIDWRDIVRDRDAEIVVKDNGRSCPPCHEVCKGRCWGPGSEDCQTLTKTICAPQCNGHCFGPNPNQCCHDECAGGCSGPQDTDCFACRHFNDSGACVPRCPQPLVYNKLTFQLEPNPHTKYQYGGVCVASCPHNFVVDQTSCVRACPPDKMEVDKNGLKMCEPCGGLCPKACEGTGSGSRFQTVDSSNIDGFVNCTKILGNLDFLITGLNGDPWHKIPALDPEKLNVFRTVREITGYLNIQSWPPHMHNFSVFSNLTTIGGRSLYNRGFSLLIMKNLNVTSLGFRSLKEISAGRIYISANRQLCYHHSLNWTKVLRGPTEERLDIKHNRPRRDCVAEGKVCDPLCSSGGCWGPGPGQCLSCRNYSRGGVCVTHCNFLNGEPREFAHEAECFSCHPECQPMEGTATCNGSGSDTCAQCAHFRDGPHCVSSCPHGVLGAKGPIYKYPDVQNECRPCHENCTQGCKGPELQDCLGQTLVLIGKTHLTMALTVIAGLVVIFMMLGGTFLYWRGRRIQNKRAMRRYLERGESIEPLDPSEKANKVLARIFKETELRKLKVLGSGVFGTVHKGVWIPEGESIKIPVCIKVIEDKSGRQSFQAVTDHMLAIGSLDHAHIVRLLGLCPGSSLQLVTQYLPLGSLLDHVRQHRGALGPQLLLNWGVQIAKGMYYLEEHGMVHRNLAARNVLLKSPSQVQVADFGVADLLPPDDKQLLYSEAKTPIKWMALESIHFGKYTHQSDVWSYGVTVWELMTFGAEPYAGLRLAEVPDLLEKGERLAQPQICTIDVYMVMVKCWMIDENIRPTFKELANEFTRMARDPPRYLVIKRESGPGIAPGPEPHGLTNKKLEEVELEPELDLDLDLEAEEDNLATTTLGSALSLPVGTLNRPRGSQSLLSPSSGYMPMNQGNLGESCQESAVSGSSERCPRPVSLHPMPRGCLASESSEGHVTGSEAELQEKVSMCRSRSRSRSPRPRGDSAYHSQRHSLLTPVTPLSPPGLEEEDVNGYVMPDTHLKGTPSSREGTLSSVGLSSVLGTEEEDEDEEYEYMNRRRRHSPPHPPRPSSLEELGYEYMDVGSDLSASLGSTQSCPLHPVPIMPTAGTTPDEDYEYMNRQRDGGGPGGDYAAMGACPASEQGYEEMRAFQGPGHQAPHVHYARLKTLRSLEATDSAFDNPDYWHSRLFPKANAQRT
Sequence of BLK (P51451 whole entry): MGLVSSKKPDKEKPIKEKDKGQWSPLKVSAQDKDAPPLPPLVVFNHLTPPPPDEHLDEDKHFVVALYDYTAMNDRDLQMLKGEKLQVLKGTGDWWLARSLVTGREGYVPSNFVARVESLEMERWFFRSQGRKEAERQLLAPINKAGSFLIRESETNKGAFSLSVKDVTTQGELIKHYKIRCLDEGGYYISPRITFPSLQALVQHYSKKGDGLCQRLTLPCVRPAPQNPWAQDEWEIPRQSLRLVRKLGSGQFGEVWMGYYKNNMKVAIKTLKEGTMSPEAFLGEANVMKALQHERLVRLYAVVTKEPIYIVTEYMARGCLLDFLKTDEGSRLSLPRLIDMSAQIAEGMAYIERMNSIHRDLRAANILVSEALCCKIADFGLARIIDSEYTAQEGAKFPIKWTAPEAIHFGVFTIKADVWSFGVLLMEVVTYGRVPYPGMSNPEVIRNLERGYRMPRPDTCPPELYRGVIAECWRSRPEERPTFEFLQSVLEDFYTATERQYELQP
Sequence of JNK2 (MAPK9) (P45984 whole entry): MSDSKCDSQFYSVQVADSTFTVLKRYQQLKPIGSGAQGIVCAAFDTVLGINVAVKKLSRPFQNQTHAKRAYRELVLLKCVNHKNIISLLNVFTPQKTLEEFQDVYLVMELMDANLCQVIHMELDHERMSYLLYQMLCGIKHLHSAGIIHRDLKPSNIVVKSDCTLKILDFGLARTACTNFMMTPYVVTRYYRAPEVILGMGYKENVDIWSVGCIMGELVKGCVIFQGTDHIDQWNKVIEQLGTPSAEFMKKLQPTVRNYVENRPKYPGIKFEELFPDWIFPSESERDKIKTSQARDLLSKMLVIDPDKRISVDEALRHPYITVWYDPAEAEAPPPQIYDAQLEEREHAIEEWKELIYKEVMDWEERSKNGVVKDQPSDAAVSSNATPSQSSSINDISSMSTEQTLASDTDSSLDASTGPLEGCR
Sequence of ERBB4 (Q15303 26-1308): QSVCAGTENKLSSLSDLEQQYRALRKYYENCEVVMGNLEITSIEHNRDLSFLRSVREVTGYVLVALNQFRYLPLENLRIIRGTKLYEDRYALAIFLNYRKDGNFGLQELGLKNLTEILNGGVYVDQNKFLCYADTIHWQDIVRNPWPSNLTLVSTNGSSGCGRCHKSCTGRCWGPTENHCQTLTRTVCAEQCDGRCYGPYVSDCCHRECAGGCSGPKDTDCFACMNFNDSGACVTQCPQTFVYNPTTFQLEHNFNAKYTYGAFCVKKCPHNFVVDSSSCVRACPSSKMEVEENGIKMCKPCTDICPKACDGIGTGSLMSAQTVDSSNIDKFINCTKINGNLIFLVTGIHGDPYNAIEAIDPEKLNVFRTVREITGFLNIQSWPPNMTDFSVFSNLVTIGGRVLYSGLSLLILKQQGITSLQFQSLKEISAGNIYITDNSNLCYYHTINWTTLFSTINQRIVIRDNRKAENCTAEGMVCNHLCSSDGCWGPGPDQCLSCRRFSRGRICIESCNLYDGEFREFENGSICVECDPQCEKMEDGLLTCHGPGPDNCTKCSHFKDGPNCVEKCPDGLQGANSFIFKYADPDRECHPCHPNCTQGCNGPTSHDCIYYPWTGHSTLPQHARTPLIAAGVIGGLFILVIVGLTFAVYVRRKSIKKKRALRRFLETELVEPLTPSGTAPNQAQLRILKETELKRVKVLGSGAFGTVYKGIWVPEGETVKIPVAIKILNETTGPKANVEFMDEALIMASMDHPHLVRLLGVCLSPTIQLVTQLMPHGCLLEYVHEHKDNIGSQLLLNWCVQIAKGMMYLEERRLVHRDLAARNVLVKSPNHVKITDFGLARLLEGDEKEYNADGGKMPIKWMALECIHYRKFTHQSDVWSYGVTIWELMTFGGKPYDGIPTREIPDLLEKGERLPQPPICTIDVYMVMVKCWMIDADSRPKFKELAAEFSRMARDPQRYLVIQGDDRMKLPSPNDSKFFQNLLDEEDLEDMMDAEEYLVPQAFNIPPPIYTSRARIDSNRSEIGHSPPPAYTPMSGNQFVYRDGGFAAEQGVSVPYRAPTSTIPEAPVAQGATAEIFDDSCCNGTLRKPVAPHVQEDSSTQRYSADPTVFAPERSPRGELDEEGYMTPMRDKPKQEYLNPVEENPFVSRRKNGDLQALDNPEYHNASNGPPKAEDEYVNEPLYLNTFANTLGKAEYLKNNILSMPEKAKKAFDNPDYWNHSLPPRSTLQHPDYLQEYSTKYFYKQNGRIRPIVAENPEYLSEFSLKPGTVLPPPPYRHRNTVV
T4 sequence (P52333 822-1111 limits assumed): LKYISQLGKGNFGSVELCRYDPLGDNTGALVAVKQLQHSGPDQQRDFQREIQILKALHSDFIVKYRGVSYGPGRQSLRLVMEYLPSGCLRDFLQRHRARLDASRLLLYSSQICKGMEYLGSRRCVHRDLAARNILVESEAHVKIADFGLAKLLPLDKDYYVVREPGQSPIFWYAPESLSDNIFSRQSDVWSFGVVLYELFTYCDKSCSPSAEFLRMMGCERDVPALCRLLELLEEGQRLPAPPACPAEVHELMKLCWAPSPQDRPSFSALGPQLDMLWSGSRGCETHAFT

| SMILES | TEC binding POC [1] | TXK binding POC [2] | ITK binding POC [3] | BLK binding POC [4] | EGFR binding POC [5] | ERBB2 binding POC [6] | ERBB3 binding POC [7] | ERBB4 binding POC [8] | JAK3 binding POC [9] | MKK7 binding POC [10] | IC50 [12] [nM] | JNK1 (MAPK8) POC [13] | JNK2 (MAPK9) POC [14] | JNK3 (MAPK10) POC [15] | further results |
| --- | --- | --- | --- | --- | --- | --- | --- | --- | --- | --- | --- | --- | --- | --- | --- |
| C=CC(=O)N1CCC([C@@H]2CCNc3c(C(N)=O)c(-c4ccc(Oc5ccccc5)cc4)nn32)CC1 [Zanubrutinib] | 8.7% of control | 2.2% of control | 74% of control | 0.3% of control | 0% of control | 7.3% of control | 23% of control | 0.75% of control | 20% of control | 55% of control | […] | 99% of control | 95% of control | 93% of control | overall response rate (ORR, partial and complete responses) ([11]; after 15 months, P < 0.001, ref NCT03734016): 78.3%; cardiovascular adverse events ([11]; two-sided P = 0.001, ref NCT03734016): 2.5% |
| C=CC(=O)N1CCC[C@@H](n2nc(-c3ccc(Oc4ccccc4)cc3)c3c(N)ncnc32)C1 [Ibrutinib] | 5.9% of control | 0.5% of control | – | 0.25% of control | 0% of control | 0.1% of control | 0.15% of control | 0% of control | – | 0.15% of control | […] | 78% of control | 78% of control | – | IC50 [16]: […] |
| C=CC(=O)N1CCC(c2ccc(C(N)=O)c(-c3ccc(Oc4ccccc4)cc3)n2)CC1 [Orelabrutinib] | – | 34% of control | 100% of control | 52% of control | – | 100% of control | 88% of control | 96% of control | 89% of control | 100% of control | – | 100% of control | 100% of control | 100% of control | BMX binding POC [17]: 27% of control; CR [18]: 27.4%; PR [18]: 53.8%; overall response rate [18]: 81.1% |
